For 72 compounds, MIC90 results are on record in ChEMBL document CHEMBL2095176, “GSK Tuberculosis Screening Data”.

≈ marks a conversion by molar mass, not a printed value.

In the experiment the test system is Mycobacterium tuberculosis variant bovis BCG. As to the kind of experiment: microbe, parasite or virus in culture. The format is functional.
Compound `O=C(Nc1nc(-c2ccccn2)cc2ccccc12)c1cccc(Cl)c1` gave an MIC90 of 3 µM (≈ 1.08 µg/mL). Compound `COc1ccc(CCNC(=O)c2c(C)nc3ccccn23)cc1` registered an MIC90 of 6.9 µM (≈ 2.13 µg/mL).

In turn, `Cc1ccc(-n2ncc3c(SCC(=O)NNC(=O)c4ccco4)ncnc32)cc1` returned an MIC90 of 3.6 µM (≈ 1.47 µg/mL).

The compound `O=C(Nc1nc(-c2ccccn2)cs1)C1COc2ccccc2O1` (configuration not stated) yielded an MIC90 of 3.7 µM (≈ 1.26 µg/mL). Turning to `CNc1nc(SC)nc2ccsc12`, the MIC90 turned out to be 10 µM (≈ 2.11 µg/mL). Take `Cc1cc(C)n(-c2nc3ccccc3c(=O)[nH]2)n1`: the MIC90 was found to be 3.3 µM (≈ 0.793 µg/mL). Compound `CS(=O)(=O)c1cccc(C(=O)Nc2nc(-c3ccccn3)cs2)c1` displayed an MIC90 of 3.3 µM (≈ 1.19 µg/mL). In the case of `O=C(NC1CCSc2ccccc21)c1ccc(S(=O)(=O)N2CCOCC2)cc1` (configuration not stated) it was 3.3 µM (≈ 1.38 µg/mL); in that of `COCc1nc(N2CCNCC2)c2c(C)nn(-c3ccc(C)cc3)c2n1`, 3 µM (≈ 1.06 µg/mL); in that of `COc1ccc(S(=O)(=O)Nc2ccc(Nc3ccccc3)cc2OC)cc1`, 3 µM (≈ 1.15 µg/mL).

Take `COc1ccc(C(=O)Nc2nnc(-c3ccc4c(c3)CCCC4)o2)cc1`: the MIC90 worked out at 3 µM (≈ 1.05 µg/mL). For the compound `COc1ccc2cnnc(SCC(=O)NNC(=O)c3cccs3)c2c1OC`, the MIC90 was found to be 3 µM (≈ 1.21 µg/mL). Turning to `O=C(Nc1nnc(-c2ccc(Cl)s2)o1)c1ccc(Br)s1`, the MIC90 came out at 3 µM (≈ 1.17 µg/mL). `Cc1nnc(SCC(=O)NNC(=O)c2ccco2)nc1O` returned an MIC90 of 3 µM (≈ 0.928 µg/mL). `O=C(Nc1nc(-c2ccccn2)cs1)c1ccc2c(c1)OCO2` showed an MIC90 of 3 µM (≈ 0.976 µg/mL). Then `Cc1ccc(C)c(-c2nnc(NC(=O)c3ccc4c(c3)CCCC4)o2)c1`, with 3 µM (≈ 1.04 µg/mL). Then `O=C(COc1ccccc1)N1CCN(c2cnc3ccccc3n2)CC1`, with 9.3 µM (≈ 3.24 µg/mL); and `Cc1c(C(=O)Nc2ccccc2)nnc2cc(-c3ccccc3)nn12`, with 3.1 µM (≈ 1.02 µg/mL); and `CC1CCCC(NC(=O)Nc2ccc3snnc3c2)C1C` (configuration not stated), with 3.1 µM (≈ 0.944 µg/mL). In the case of `CCCCOc1ccc(C(=O)Nc2nnc(-c3ccccc3)o2)cc1`, the MIC90 came to 3.1 µM (≈ 1.05 µg/mL). Compound `O=C(Nc1nc(-c2ccccn2)cs1)c1cc2c(s1)CCCCC2` had an MIC90 of 3.1 µM (≈ 1.1 µg/mL). Take `C=CCNCCS(=O)(=O)c1cccc(Nc2ccc(-c3cccc(F)c3)cn2)c1`: the MIC90 is 3.1 µM (≈ 1.28 µg/mL). `CN(CCOc1cccc(-c2ccc(C(=O)N3CCCC3)cc2)c1)Cc1cc(-c2ccccc2)no1` showed an MIC90 of 3.1 µM (≈ 1.49 µg/mL). `COc1cccc(C(=O)N(Cc2cccnc2)Cc2cc3c(C)cc(C)cc3nc2Cl)c1`: the MIC90 was determined as 3.1 µM (≈ 1.38 µg/mL). Regarding `NC(=O)c1ccc(-c2cccc(OCCNCCc3cccc(F)c3)c2)cc1`, the MIC90 came to 3.1 µM (≈ 1.17 µg/mL).

In turn, `Cc1cc2c(NC(=O)NC3CCN(c4ccc(C(F)(F)F)cn4)CC3)cccc2c(C)n1` returned an MIC90 of 3.1 µM (≈ 1.37 µg/mL). For the compound `O=C1N(C2CCCCC2)CCS1(=O)=O`, the MIC90 worked out at 3.1 µM (≈ 0.674 µg/mL). Then `O=C(NCc1cc(Cl)cc(Cl)c1)c1c(C(F)(F)F)nc2ccccn12`, with 1.3 µM (≈ 0.505 µg/mL). The compound `C=CCNc1nc(SC)nc2ccccc12` returned an MIC90 of 4.4 µM (≈ 1.02 µg/mL). Then `O=C(Cc1ccc(Cl)c(Cl)c1)Nc1nc(-c2ccccn2)cs1`, with 3.2 µM (≈ 1.17 µg/mL); and `CN(C)c1ccc(NC(=O)Nc2cnsn2)cc1`, with 3.2 µM (≈ 0.843 µg/mL).

In the case of `CCOc1ccc(-c2nc(-c3ccc(C(F)(F)F)c(O[C@@H]4CCN(C)C4)c3)no2)cc1`, the MIC90 stood at 3.2 µM (≈ 1.39 µg/mL). `CSc1ncc(C(=O)Nc2nc(-c3ccc(Cl)cc3)cs2)cn1` had an MIC90 of 3.3 µM (≈ 1.2 µg/mL). As for `O=C(Nc1nc(-c2ccccn2)cs1)C1(c2ccc(Cl)cc2)CC1`, the MIC90 came to 3.3 µM (≈ 1.17 µg/mL). Then `CCOc1ccc(CC(=O)Nc2cc(C)nn2-c2nc(C)c(CC)c(=O)[nH]2)cc1`, with 3.3 µM (≈ 1.31 µg/mL); and `C=CCn1c(Sc2ccnc(N3CCN(c4ccncc4)CC3)n2)nnc1C(N)=O`, with 3.3 µM (≈ 1.4 µg/mL). Consider `O=C(C=Cc1cccs1)Nc1nc(-c2ccccn2)cs1`, for which the MIC90 amounted to 3.3 µM (≈ 1.03 µg/mL). For the compound `O=C(C=Cc1ccccc1)Nc1nc(-c2ccccn2)cs1`, the MIC90 worked out at 3.3 µM (≈ 1.01 µg/mL). As for `O=C(NCc1ccc2c(c1)OCO2)c1c(C(F)(F)F)nc2ccccn12`, the MIC90 turned out to be 3.4 µM (≈ 1.24 µg/mL). Then `Cc1cc(OCC(=O)Nc2ccccc2)c2cc(Br)ccc2n1`, with 2 µM (≈ 0.742 µg/mL); and `FC(F)(F)c1cc(SCc2ccccc2)nc(-c2ccccn2)n1`, with 7.1 µM (≈ 2.47 µg/mL); and `O=C(Nc1nc(-c2ccccn2)cs1)c1cccc(Oc2ccccc2)c1`, with 3.4 µM (≈ 1.27 µg/mL).

For `Cc1cc(N2CCCN(C)CC2)nc(Nc2cc(F)cc(F)c2)n1`, the MIC90 came out at 3.4 µM (≈ 1.13 µg/mL).

Consider `COc1ccccc1OCCCCn1c(C2CC2)nc2ccccc21`, for which the MIC90 was 3 µM (≈ 1.01 µg/mL). On to `Cc1ccc2nc(C(F)(F)F)c(C(=O)NCc3ccc(C)o3)n2c1`, for which the MIC90 is 4.4 µM (≈ 1.48 µg/mL).

As for `c1csc(-c2nnc(Sc3ccnc(N4CCN(c5ccncc5)CC4)n3)n2CCCN2CCOCC2)c1`, the MIC90 is 5.4 µM (≈ 2.97 µg/mL). With `O=C(Nc1nc(-c2ccccn2)cs1)c1ccc(Br)o1`, the MIC90 is 3.5 µM (≈ 1.23 µg/mL). In the case of `Fc1ccc(F)c(-c2noc(CC3CCN(Cc4ccsc4)C3)n2)c1` (configuration not stated), the MIC90 amounted to 3.5 µM (≈ 1.26 µg/mL). Regarding `NC(=O)c1cc(-c2ccsc2)ccc1OCCOc1ccccc1`, the MIC90 turned out to be 2.7 µM (≈ 0.916 µg/mL). Consider `Br.CC1(C)NC(N)=NC(=N)N1OCCCOc1ccc(Cl)cc1Cl`, for which the MIC90 stood at 4.5 µM. In turn, `Nc1ccccc1NC1CCN(Cc2ccccc2)CC1` registered an MIC90 of 3.6 µM (≈ 1.01 µg/mL). In the case of `O=C(Nc1nc(-c2ccccn2)cs1)c1ccc(-c2ccc(F)cc2)s1` it was 3.6 µM (≈ 1.37 µg/mL); in that of `CCCCOc1ccc(C(=O)Nc2nc(-c3ccccn3)cs2)cc1OCC`, 3.6 µM (≈ 1.43 µg/mL). `O=C(Nc1cccc(C(=O)N2CCCC(c3nc4ccccc4s3)C2)c1)c1cccs1` (configuration not stated) registered an MIC90 of 3.6 µM (≈ 1.61 µg/mL). Consider `CC(C)n1ncc2c(C(=O)NCC(c3ccco3)N3CCCC3)cc(-c3ccccc3)nc21` (configuration not stated), for which the MIC90 was 3.6 µM (≈ 1.6 µg/mL). For the compound `COc1ccc(-c2ccc(Nc3cccc(S(=O)(=O)CCN4CCc5ccccc5C4)c3)nc2)cn1`, the MIC90 stood at 3.6 µM (≈ 1.8 µg/mL). Turning to `C=CCNCCS(=O)(=O)c1cccc(Nc2ncc(-c3ccc(OC)nc3)cn2)c1`, the MIC90 came to 3.6 µM (≈ 1.53 µg/mL). On to `CC(C)NCc1ccc(-c2ccc(NS(=O)(=O)c3ccc(F)cc3)cc2)cc1`, for which the MIC90 is 3.6 µM (≈ 1.43 µg/mL).

In the case of `O=C(Nc1nnc(-c2ccccc2)o1)c1cccc(C(F)(F)F)c1`, the MIC90 worked out at 3.6 µM (≈ 1.2 µg/mL). Regarding `CS(=O)(=O)c1ccc(C(=O)Nc2nc(-c3ccccn3)cs2)cc1`, the MIC90 was determined as 3.6 µM (≈ 1.29 µg/mL). Compound `COc1cccc(Nc2cc(C(C)(C)C)nc(-c3ccccn3)n2)c1` gave an MIC90 of 3.6 µM (≈ 1.2 µg/mL).

Consider `CCS(=O)(=O)c1ccc(C(=O)Nc2nc(-c3ccccn3)cs2)cc1`, for which the MIC90 turned out to be 3.7 µM (≈ 1.38 µg/mL). Compound `O=C(NCCCn1nc(Cl)c(N2CCCNCC2)cc1=O)Nc1ccc(-c2ccccc2)cc1` showed an MIC90 of 3.7 µM (≈ 1.78 µg/mL). As to `c1ccc(Nc2cc(-c3ccccc3)nc(-c3ccccn3)n2)cc1`, the MIC90 was 3.7 µM (≈ 1.2 µg/mL). The compound `Cc1ccc(-c2nnc(NC(=O)c3ccc(C#N)cc3)o2)cc1C` yielded an MIC90 of 3.7 µM (≈ 1.18 µg/mL). Then `COc1ccc(-c2cc(C(=O)NC3CCCCNC3=O)n3nc(C(C)(C)C)cc3n2)cc1` (configuration not stated), with 3.7 µM (≈ 1.61 µg/mL). Then `COc1ccc(N2CCN(c3ccc(C#N)cc3C(F)(F)F)CC2)c(OC)c1`, with 3.7 µM (≈ 1.45 µg/mL). In the case of `CCOc1cc(OC)c(C(=O)Nc2cccc3c2CCNC3C)cc1Cl` (configuration not stated) it was 3.7 µM (≈ 1.39 µg/mL); in that of `Br.CCc1ccccc1OCCCON1C(=N)N=C(N)NC1(C)C`, 2.8 µM. On to `Cc1nn(CC(C)C)c2sc(C(=O)Nc3nc(-c4ccccn4)cs3)cc12`, for which the MIC90 worked out at 3.7 µM (≈ 1.47 µg/mL). Compound `COc1cc(OC)cc(C(=O)Nc2nc(-c3ccccn3)cs2)c1` registered an MIC90 of 3.4 µM (≈ 1.16 µg/mL). Compound `Cc1ccc(OCC(=O)Nc2cc(C)nn2-c2nc(C)cc(O)n2)cc1` had an MIC90 of 3.6 µM (≈ 1.27 µg/mL).
